Reference: patent US8022091B2, “Triazole derivative” (Taisho Pharmaceutical Co., Ltd., priority 2006, dated 2011)

Key:
human Edg-1 (S1P1) = molecular target: T1, human Edg-1 (S1P1) (Homo sapiens, UniProt P21453); assay: S1P1 binding assay: inhibition of [33P]-S1P binding to membrane fraction of HEK-293 cells transferred with the human Edg-1 (S1P1) gene; details: for inhibition at 10 µM: test compound at 10 μM, inhibition of [33P]-S1P binding to the membrane fraction of HEK-293 cells expressing human Edg-1 (S1P1); for IC50: [33P]-S1P 0.1 nM, human Edg-1 (S1P1) HEK-293 membrane fraction, 1 h at 30° C., read-out: IC50 (concentration at which binding in the absence of the test compound was inhibited by 50%)
T1 construct: expressed in transfected cells; host or cells: HEK-293
In short: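 With 0.1 nM [33P]-S1P and compound (10^−5M single point, or a concentration range for IC50) in 0.1% DMSO, membrane fractions from human Edg-1-expressing HEK-293 cells were treated for one hour at 30° C in 20 mM Tris-HCl pH 7.4 with NaF, deoxypyridoxine and BSA. Bound label was measured after filtration, with untransfected-cell background subtracted.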

T1 sequence (P21453 whole entry): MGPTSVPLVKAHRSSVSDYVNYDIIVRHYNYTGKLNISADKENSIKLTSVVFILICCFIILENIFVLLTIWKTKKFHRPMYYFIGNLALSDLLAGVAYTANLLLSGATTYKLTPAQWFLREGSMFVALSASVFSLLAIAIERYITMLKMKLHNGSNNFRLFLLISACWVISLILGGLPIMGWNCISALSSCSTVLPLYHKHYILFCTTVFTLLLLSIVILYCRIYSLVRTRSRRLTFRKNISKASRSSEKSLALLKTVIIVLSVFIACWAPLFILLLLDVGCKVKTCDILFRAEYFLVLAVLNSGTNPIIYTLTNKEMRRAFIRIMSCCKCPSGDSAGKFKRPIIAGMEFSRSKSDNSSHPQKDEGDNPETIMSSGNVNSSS

Compound	inhibition at 10 µM (human Edg-1 (S1P1)) [%]	melting point [°C]	IC50 (human Edg-1 (S1P1)) [nM]
CCn1c(Oc2cccc(-n3cnnc3)c2)nnc1[C@@H](C)NS(=O)(=O)c1ccc(Cl)c(Cl)c1 [Compound 89]	90.3	101 to 103	–
CCn1c(Oc2cccc(NC=O)c2)nnc1[C@@H](C)NS(=O)(=O)c1ccc(Cl)c(Cl)c1 [Compound 90, 3,4-Dichloro-N-[(R)-1-[4-ethyl-5-(3-formylamino-phenoxy)-4H-[1,2,4]triazol-3-yl]-ethyl]-benzenesulfonamide]	99	168 to 170	–
CCn1c(Oc2cccc(NC(N)=O)c2)nnc1[C@@H](C)NS(=O)(=O)c1ccc(Cl)c(Cl)c1 [Compound 91, 3,4-Dichloro-N-[(R)-1-[4-ethyl-5-(3-ureido-phenoxy)-4H-[1,2,4]triazol-3-yl]-ethyl]-benzenesulfonamide]	90.6	137 to 138	–
CCNC(=O)Nc1cccc(Oc2nnc([C@@H](C)NS(=O)(=O)c3ccc(Cl)c(Cl)c3)n2CC)c1 [Compound 92, 3,4-Dichloro-N-((R)-1-[4-ethyl-5-[3-(3-ethylureido)-phenoxy]-4H-[1,2,4]triazol-3-yl]-ethyl)-benzenesulfonamide]	92.1	118 to 120	–
CCn1c(Oc2cccc(N3CCC(O)CC3)c2)nnc1[C@@H](C)NS(=O)(=O)c1ccc(Cl)c(Cl)c1 [Compound 93, 3,4-Dichloro-N-((R)-1-[4-ethyl-5-[3-(4-hydroxy-piperidin-1-yl)-phenoxy]-4H-[1,2,4]triazol-3-yl]-ethyl)-benzenesulfonamide]	99.9	167.5 to 169.5	≤ 10
CCn1c(Oc2cccc(N3CCN(C(C)C)CC3)c2)nnc1[C@@H](C)NS(=O)(=O)c1ccc(Cl)c(Cl)c1 [Compound 94]	106	190 to 192	≤ 10
CCn1c(Oc2cc(C)cc(C)n2)nnc1[C@@H](C)NS(=O)(=O)c1ccc(Cl)c(Cl)c1 [Compound 95]	92.4	205 to 208.5	–
CCn1c(Oc2cc3nc(C)cc(C)n3n2)nnc1[C@@H](C)NS(=O)(=O)c1ccc(Cl)c(Cl)c1 [Compound 96]	78.7	191 to 194	–
CCn1c(Oc2cccc(NC(=O)N(C)C)c2)nnc1[C@@H](C)NS(=O)(=O)c1ccc(Cl)c(Cl)c1 [Compound 97, 3,4-Dichloro-N-((R)-1-[5-[3-(3,3-dimethylureido)-phenoxy]-4-ethyl-4H-[1,2,4]triazol-3-yl]-ethyl)-benzenesulfonamide]	93	158 to 159	–
CCn1c(Oc2cccc(NC(=O)N3CCOCC3)c2)nnc1[C@@H](C)NS(=O)(=O)c1ccc(Cl)c(Cl)c1 [Compound 98]	100	143 to 144	–
CCn1c(Oc2cc(C(C)C)n(C)n2)nnc1[C@@H](C)NS(=O)(=O)c1ccc(Cl)c(Cl)c1 [Compound 99]	102	103 to 105.5	25
CCn1c(Oc2cccc(NS(=O)(=O)N(C)C)c2)nnc1[C@@H](C)NS(=O)(=O)c1ccc(Cl)c(Cl)c1 [Compound 101]	101	142 to 143	≤ 35
CCn1c(Oc2cccc(NS(C)(=O)=O)c2)nnc1[C@@H](C)NS(=O)(=O)c1ccc(Cl)c(Cl)c1 [Compound 102, 3,4-Dichloro-N-[(R)-1-[4-ethyl-5-(3-methanesulfonylamino-phenoxy)-4H-[1,2,4]triazol-3-yl]-ethyl]-benzenesulfonamide]	104	117 to 118	≤ 35
CCn1c(Oc2ccc(F)cc2)nnc1[C@@H](C)NS(=O)(=O)c1ccc(F)c(Cl)c1 [Compound 103]	91.2	146.5 to 147.5	–
CCn1c(Oc2ccc(F)cc2)nnc1[C@@H](C)NS(=O)(=O)c1ccc(Br)c(Br)c1 [Compound 104]	95.2	187 to 187.5	–
CCn1c(Oc2cccc(N(C)CCN(C)C)c2)nnc1[C@@H](C)NS(=O)(=O)c1ccc(Cl)c(Cl)c1 [Compound 105]	104	121 to 123	2.9
CCn1c(Oc2cccc(OCCN(C)C)c2)nnc1[C@@H](C)NS(=O)(=O)c1ccc(Cl)c(Cl)c1 [Compound 106]	110	132 to 134	–
CCn1c(Oc2cccc(N(C(C)C)C(C)C)c2)nnc1[C@@H](C)NS(=O)(=O)c1ccc(Cl)c(Cl)c1 [Compound 107]	104	159 to 162	≤ 10
CCn1c(Oc2cccc(C3CCN(C(C)C)CC3)c2)nnc1[C@@H](C)NS(=O)(=O)c1ccc(Cl)c(Cl)c1 [Compound 108]	101	175 to 180	18
CCn1c(Oc2cccc(N3CCN(C)CC3)c2)nnc1[C@@H](C)NS(=O)(=O)c1ccc(F)c(Cl)c1 [Compound 109]	104	152 to 153	≤ 35
CCn1c(Oc2ccc(F)cc2)nnc1[C@@H](C)NS(=O)(=O)c1ccc(Br)c(C)c1 [Compound 110]	104	187.5 to 188.5	–

Compound	inhibition at 10 µM (human Edg-1 (S1P1)) [%]	melting point [°C]	IC50 (human Edg-1 (S1P1)) [nM]
CCn1c(Oc2cccc(N3CCN(C)CC3)c2)nnc1[C@@H](C)NS(=O)(=O)c1ccc(Br)c(C)c1 [Compound 111]	109	204 to 205	≤ 10
CCn1c(Oc2cccc(N3CCN(C)CC3)c2)nnc1[C@@H](C)NS(=O)(=O)c1ccc(Br)c(Br)c1 [Compound 112]	99.2	171 to 173	≤ 10
CCn1c(Oc2cccc(C(=O)O)c2)nnc1[C@@H](C)NS(=O)(=O)c1ccc(Cl)c(Cl)c1 [Compound 113, 3-[5-[(R)-1-(3,4-Dichlorobenzenesulfonylamino)-ethyl]-4-ethyl-4H-[1,2,4]triazol-3-yloxy]-benzoic acid]	74.2	183 to 185	–
CCn1c(Oc2cccc(O)c2)nnc1[C@@H](C)NS(=O)(=O)c1ccc(Cl)c(Cl)c1 [Compound 114, 3,4-Dichloro-N-[(R)-1-[4-ethyl-5-(3-hydroxyphenoxy)-4H-[1,2,4]triazol-3-yl]-ethyl]-benzenesulfonamide]	94.5	185 to 186	–
CCn1c(Nc2ccc(F)cc2)nnc1[C@@H](C)NS(=O)(=O)c1ccc(Cl)c(Cl)c1 [Compound 116]	83.1	192 to 195	–
CCOc1ccc2c(Oc3nnc([C@@H](C)NS(=O)(=O)c4ccc(Cl)c(Cl)c4)n3CC)csc2c1 [Compound 117]	87.1	153.5 to 155.5	–
CCn1c(Oc2cccc(N3CCN(C)CC3)c2)nnc1[C@@H](C)NS(=O)(=O)c1ccc2c(Cl)cccc2c1 [Compound 120]	93	211.5 to 216.5	1.7
CCn1c(Oc2cccc(N3CCN(C)CC3)c2)nnc1[C@@H](C)NS(=O)(=O)c1ccc2ccccc2c1 [Compound 121]	103	195.5 to 198.5	≤ 10
CCn1c(Oc2ccc(F)cc2)nnc1[C@@H](C)NS(=O)(=O)c1ccc2ccccc2c1 [Compound 122]	81.9	167 to 170	≤ 35
C[C@@H](NS(=O)(=O)c1ccc(Cl)c(Cl)c1)c1nnc(Oc2cccc(N3CCN(C)CC3)c2)n1C1CC1 [Compound 123]	97.1	162 to 165	≤ 35
C[C@@H](NS(=O)(=O)c1ccc(Cl)c(Cl)c1)c1nnc(Oc2ccc(F)cc2)n1C1CC1 [Compound 124]	97.4	178.5 to 180	–
C[C@@H](NS(=O)(=O)c1ccc(Cl)c(Cl)c1)c1nnc(Oc2ccc3cc[nH]c3c2)n1C1CC1 [Compound 125]	94.3	253.5 to 254.5	≤ 35
CCn1c(Oc2ccc(F)cc2)nnc1[C@@H](C)NS(=O)(=O)c1ccc(C)c(C)c1 [Compound 126]	91.8	176.5 to 178	–
CCn1c(Oc2ccc(F)cc2)nnc1[C@@H](C)NS(=O)(=O)c1ccc(C(F)(F)F)cc1 [Compound 128]	90.7	182.5 to 183.5	–
CCn1c(Oc2ccc3cc[nH]c3c2)nnc1[C@@H](C)NS(=O)(=O)c1ccc(C)c(C)c1 [Compound 129]	96.8	96 to 104	20
CCn1c(Oc2ccc3cc[nH]c3c2)nnc1[C@@H](C)NS(=O)(=O)c1ccc2ccccc2c1 [Compound 130]	98.9	107 to 114	2.9
CCn1c(Oc2ccc3cc[nH]c3c2)nnc1[C@@H](C)NS(=O)(=O)c1cc(C)c(Cl)cc1Cl [Compound 131]	97.3	102 to 110.5	≤ 35
CCn1c(Oc2ccc3cc[nH]c3c2)nnc1[C@@H](C)NS(=O)(=O)c1ccc(C)c(Cl)c1 [Compound 132]	99.5	95 to 104	≤ 10
CCn1c(Oc2cccc(N3CCN(C)CC3)c2)nnc1[C@@H](C)NS(=O)(=O)c1ccc(C)c(Cl)c1 [Compound 133]	101	164 to 169.5	≤ 10
CCn1c(Oc2ccc3cc[nH]c3c2)nnc1[C@@H](C)NS(=O)(=O)c1ccc(Cl)c(Cl)c1Cl [Compound 134]	101	108.5 to 114.5	≤ 35
